Source: patent publication US20250382332A1, “NOVEL ALPHA-FACTOR BASED PEPTIDES WITH ANTIFUNGAL ACTIVITY” (INVAIO SCIENCES, INC., priority 2024, published 2025)
Peptide text beside a SMILES is read from it.

System: Botrytis cinerea (B05.10)
Assay: Resazurin antifungal assay of 23 alpha-factor peptides (dimers, hybrids) towards Botrytis (Example 15, Table 6)
Format: cell-based
Design: key to active against Botrytis at 2.5 μM: Peptides that showed greater than 90% inhibition were considered active against Botrytis
Settings: for Inhibition at 2.5 μM / active against Botrytis at 2.5 μM: peptide 2.5 μM; for Inhibition at 2.5 μM / Inhibition at 5 μM / Inhibition at 10 μM / Inhibition at 20 μM / Inhibition at 50 μM: resazurin assay, % inhibition of fungal growth, Botrytis cinerea B05.10; for Inhibition at 5 μM: peptide 5 μM; for Inhibition at 10 μM: peptide 10 μM; for Inhibition at 20 μM: peptide 20 μM; for Inhibition at 50 μM: peptide 50 μM
Method: The antifungal activity of […] alpha-factor peptide variants towards Botrytis was tested. Experimental design:
Peptides corresponding to SEQ ID NO: 261-264 and 401-420 were chemically synthesized using the solid-phase synthesis method and resuspended in water to a stock solution of 1 mM. The stock solution was aliquoted in cryovials and stored at −80° C.
The Botrytis cinerea culture (B05.10) isolate was acquired from the Centraalbureau voor Schimmelcultures, the Netherlands. The Botrytis fungus was propagated on 0.5% V8 agar plates (200 ml V8 Juice, 3 g CaCO3, 15 g agar, 800-ml millipore water) at 20° C., in a 12 h photoperiod for 21 days.
Fungal conidia were harvested by scraping a Botrytis plate flooded with 1 ml water with 0.1% Tween 80 solution. Conidia were then collected in a 50 ml falcon tube by passing the solution through a 40 micron filter. The solution was then centrifuged at 6000 rpm and the pellet was resuspended in 1 ml of 20% glycerol. The conidia concentration of the resulting solution was counted using a hemocytometer. The stock was diluted to […] using 20% glycerol and frozen in 100 μl aliquots in −80° C. until further use.
Peptides were tested for activity against Botrytis, using the resazurin assay. For this, fungal stock conidia was first diluted to 5000 conidia/well. 50 μl of the spore suspension was added to each well of the sterile 96-well clear bottom testing plate and mixed with 50 μl of peptide solutions to a final concentration of 100, 50, 20, 10, 5 and 2.5 μM. The plate was incubated for 24 h at 20° C. After 24 h, 10 μl of resazurin dye was added to the microtiter plate and incubated again for […]. Fluorescence was measured at 570/620 nm after 4 h of incubation with resazurin.
Growth inhibition was calculated by subtracting the fluorescence values of conidia only wells from sample wells and depicted as % inhibition of fungal growth. Four technical replicates were used for all treatments.

CSCC[C@H](NC(=O)[C@@H]1CCCN1C(=O)[C@H](CCC(N)=O)NC(=O)CNC(=O)[C@H](C)NC(=O)[C@H](CCCNC(=N)N)NC(=O)[C@H](CC(C)C)NC(=O)[C@H](CCCNC(=N)N)NC(=O)CNC(=O)[C@H](Cc1c[nH]c2ccccc12)NC(=O)[C@H](Cc1c[nH]cn1)NC(=O)[C@H](CCCCN)NC(=O)CNC(=O)CNC(=O)CNC(=O)CNC(=O)[C@H](Cc1ccc(O)cc1)NC(=O)[C@H](CCSC)NC(=O)[C@@H]1CCCN1C(=O)[C@H](CCC(N)=O)NC(=O)CNC(=O)[C@H](C)NC(=O)[C@H](CCCNC(=N)N)NC(=O)[C@H](CC(C)C)NC(=O)[C@H](CCCNC(=N)N)NC(=O)CNC(=O)[C@H](Cc1c[nH]c2ccccc12)NC(=O)[C@H](Cc1c[nH]cn1)NC(=O)[C@@H](N)CCCCN)C(=O)N[C@@H](Cc1ccc(O)cc1)C(=O)O [compound 261] (H-KHWGRLRAGQPMYGGGGKHWGRLRAGQPMY-OH; N-terminus and C-terminus assumed) was tested, and the “Inhibition at 2.5 μM” value was under 90%, the “Inhibition at 5 μM” value was 99.3% and the “Inhibition at 10 μM” value was 100%. For the same molecule, the “Inhibition at 20 μM” value was 100% and the “Inhibition at 50 μM” value was 100%.

In the case of CSCC[C@H](NC(=O)[C@@H]1CCCN1C(=O)[C@H](CCC(N)=O)NC(=O)CNC(=O)[C@H](C)NC(=O)[C@H](CCCNC(=N)N)NC(=O)[C@H](CC(C)C)NC(=O)[C@H](CCCNC(=N)N)NC(=O)CNC(=O)[C@H](Cc1c[nH]c2ccccc12)NC(=O)[C@H](Cc1c[nH]cn1)NC(=O)[C@@H](N)CCCCN)C(=O)N[C@@H](Cc1ccc(O)cc1)C(=O)NCC(=O)NCC(=O)NCC(=O)NCC(=O)N[C@@H](CCCNC(=N)N)C(=O)N[C@@H](CCCNC(=N)N)C(=O)N[C@@H](CCCNC(=N)N)C(=O)N[C@@H](CCCNC(=N)N)C(=O)N[C@@H](CCCNC(=N)N)C(=O)N[C@@H](CCCNC(=N)N)C(=O)N[C@@H](CCCNC(=N)N)C(=O)N[C@@H](CCCNC(=N)N)C(=O)O [compound 262] (H-KHWGRLRAGQPMYGGGGRRRRRRRR-OH; N-terminus and C-terminus assumed), the “active against Botrytis at 2.5 μM” value is reported as “active”, the “Inhibition at 2.5 μM” value is reported as 99.8% and the “Inhibition at 5 μM” value is reported as 100%. For the same molecule, the “Inhibition at 10 μM” value was 100%, the “Inhibition at 20 μM” value was 100% and the “Inhibition at 50 μM” value was 100%.

For CSCC[C@H](NC(=O)[C@@H]1CCCN1C(=O)[C@H](CCC(N)=O)NC(=O)CNC(=O)[C@H](C)NC(=O)[C@H](CCCNC(=N)N)NC(=O)[C@H](CC(C)C)NC(=O)[C@H](CCCNC(=N)N)NC(=O)CNC(=O)[C@H](Cc1c[nH]c2ccccc12)NC(=O)[C@H](Cc1c[nH]cn1)NC(=O)[C@@H](N)CCCCN)C(=O)N[C@@H](Cc1ccc(O)cc1)C(=O)NCC(=O)NCC(=O)NCC(=O)NCC(=O)N[C@@H](CCCCN)C(=O)N[C@@H](CCCCN)C(=O)N[C@@H](CCCCN)C(=O)N[C@@H](CCCCN)C(=O)N[C@@H](CCCCN)C(=O)N[C@@H](CCCCN)C(=O)N[C@@H](CCCCN)C(=O)N[C@@H](CCCCN)C(=O)O [compound 263] (H-KHWGRLRAGQPMYGGGGKKKKKKKK-OH; N-terminus and C-terminus assumed), the “active against Botrytis at 2.5 μM” value was “active”, the “Inhibition at 2.5 μM” value was 99.7% and the “Inhibition at 5 μM” value was 100%. For the same molecule, the “Inhibition at 10 μM” value was 100%, the “Inhibition at 20 μM” value was 100% and the “Inhibition at 50 μM” value was 100%.

In the case of CSCC[C@H](NC(=O)[C@@H]1CCCN1C(=O)[C@H](CCC(N)=O)NC(=O)CNC(=O)[C@H](C)NC(=O)[C@H](CCCNC(=N)N)NC(=O)[C@H](CC(C)C)NC(=O)[C@H](CCCNC(=N)N)NC(=O)CNC(=O)[C@H](Cc1c[nH]c2ccccc12)NC(=O)[C@H](Cc1c[nH]cn1)NC(=O)[C@@H](N)CCCCN)C(=O)N[C@@H](Cc1ccc(O)cc1)C(=O)NCC(=O)NCC(=O)NCC(=O)NCC(=O)N[C@@H](Cc1ccc(O)cc1)C(=O)N[C@@H](CCSC)C(=O)N1CCC[C@H]1C(=O)N[C@@H](CCC(N)=O)C(=O)NCC(=O)N[C@@H](C)C(=O)N[C@@H](CCCNC(=N)N)C(=O)N[C@@H](CC(C)C)C(=O)N[C@@H](CCCNC(=N)N)C(=O)NCC(=O)N[C@@H](Cc1c[nH]c2ccccc12)C(=O)N[C@@H](Cc1c[nH]cn1)C(=O)N[C@@H](CCCCN)C(=O)O [compound 264] (H-KHWGRLRAGQPMYGGGGYMPQGARLRGWHK-OH; N-terminus and C-terminus assumed), the “Inhibition at 2.5 μM” value is reported as under 90%, the “Inhibition at 5 μM” value is reported as 96.2% and the “Inhibition at 10 μM” value is reported as 100%. The “Inhibition at 20 μM” value was 100% and the “Inhibition at 50 μM” value was 100%.

For CC[C@H](C)[C@H](NC(=O)[C@H](Cc1c[nH]cn1)NC(=O)[C@@H](N)CCCCN)C(=O)N[C@@H](CC(C)C)C(=O)N[C@@H](CCCCN)C(=O)N[C@@H](Cc1ccccc1)C(=O)N[C@@H](CCCCN)C(=O)N1CCC[C@H]1C(=O)NCC(=O)N[C@@H](CCC(N)=O)C(=O)N1CCC[C@H]1C(=O)N[C@@H](CCSC)C(=O)N[C@@H](Cc1ccc(O)cc1)C(=O)O [compound 402] (H-KHILKFKPGQPMY-OH; N-terminus and C-terminus assumed), the “Inhibition at 2.5 μM” value was under 90%, the “Inhibition at 5 μM” value was under 90% and the “Inhibition at 10 μM” value was 96.2%. The “Inhibition at 20 μM” value was 100% and the “Inhibition at 50 μM” value was 100%.

With CSCC[C@H](NC(=O)[C@@H]1CCCN1C(=O)[C@H](CCC(N)=O)NC(=O)CNC(=O)[C@@H]1CCCN1C(=O)[C@H](CCCCN)NC(=O)[C@H](Cc1ccccc1)NC(=O)[C@H](CCCNC(=N)N)NC(=O)[C@H](CC(C)C)NC(=O)[C@H](Cc1ccc(O)cc1)NC(=O)[C@H](Cc1c[nH]cn1)NC(=O)[C@@H](N)CCCCN)C(=O)N[C@@H](Cc1ccc(O)cc1)C(=O)O [compound 403] (H-KHYLRFKPGQPMY-OH; N-terminus and C-terminus assumed) the “Inhibition at 2.5 μM” value was under 90%, the “Inhibition at 5 μM” value was under 90% and the “Inhibition at 10 μM” value was 96.0%. For the same molecule, the “Inhibition at 20 μM” value was 100% and the “Inhibition at 50 μM” value was 100%.

In the case of CSCC[C@H](NC(=O)[C@@H]1CCCN1C(=O)[C@H](CCC(N)=O)NC(=O)CNC(=O)[C@@H]1CCCN1C(=O)[C@H](Cc1c[nH]c2ccccc12)NC(=O)[C@H](CC(C)C)NC(=O)[C@H](CCCNC(=N)N)NC(=O)[C@H](CC(C)C)NC(=O)[C@H](CO)NC(=O)[C@H](Cc1c[nH]cn1)NC(=O)[C@@H](N)CCCCN)C(=O)N[C@@H](Cc1ccc(O)cc1)C(=O)O [compound 404] (H-KHSLRLWPGQPMY-OH; N-terminus and C-terminus assumed), the “Inhibition at 10 μM” value is reported as under 90%, the “Inhibition at 20 μM” value is reported as under 90% and the “Inhibition at 50 μM” value is reported as 100%.

With CSCC[C@H](NC(=O)[C@@H]1CCCN1C(=O)[C@H](CCC(N)=O)NC(=O)CNC(=O)[C@@H]1CCCN1C(=O)[C@H](Cc1ccccc1)NC(=O)[C@H](CC(C)C)NC(=O)[C@@H](NC(=O)[C@H](CC(C)C)NC(=O)[C@H](Cc1c[nH]c2ccccc12)NC(=O)[C@H](Cc1c[nH]cn1)NC(=O)[C@@H](N)CCCCN)[C@@H](C)O)C(=O)N[C@@H](Cc1ccc(O)cc1)C(=O)O [compound 405] (H-KHWLTLFPGQPMY-OH; N-terminus and C-terminus assumed) the “Inhibition at 50 μM” value was under 90%.

With CSCC[C@H](NC(=O)[C@@H]1CCCN1C(=O)[C@H](CCC(N)=O)NC(=O)CNC(=O)[C@H](CCCNC(=N)N)NC(=O)[C@H](CC(=O)O)NC(=O)[C@H](CC(C)C)NC(=O)[C@H](CCC(N)=O)NC(=O)[C@H](CC(C)C)NC(=O)[C@H](Cc1c[nH]c2ccccc12)NC(=O)[C@H](CCC(N)=O)NC(=O)[C@@H](N)Cc1c[nH]c2ccccc12)C(=O)N[C@@H](Cc1ccc(O)cc1)C(=O)O [compound 406] (H-WQWLQLDRGQPMY-OH; N-terminus and C-terminus assumed) the “Inhibition at 50 μM” value was under 90%.

CC[C@H](C)[C@H](NC(=O)[C@H](CCC(N)=O)NC(=O)[C@H](CC(C)C)NC(=O)[C@H](CO)NC(=O)[C@H](Cc1c[nH]cn1)NC(=O)[C@@H](N)Cc1c[nH]c2ccccc12)C(=O)N[C@@H](CCCCN)C(=O)N[C@@H](CCCCN)C(=O)NCC(=O)N[C@@H](CCC(N)=O)C(=O)N1CCC[C@H]1C(=O)N[C@@H](CCSC)C(=O)N[C@@H](Cc1ccc(O)cc1)C(=O)O [compound 407] (H-WHSLQIKKGQPMY-OH; N-terminus and C-terminus assumed) was tested, and the “Inhibition at 10 μM” value was under 90%, the “Inhibition at 20 μM” value was under 90% and the “Inhibition at 50 μM” value was 100%.
